These results are taken from patent publication US9914720B2, “Crystalline form of (S)-(2-(6-chloro-7-methyl-1H-benzo[D]imidazol-2-yl)-2-methylpyrrolidin-1-yl)(5-methoxy-2-(2H-1,2,3-triazol-2-yl)phenyl)methanone and its use as orexin receptor antagonists” (IDORSIA PHARMACEUTICALS LTD, priority 2013, dated 2018).

A short description of series [1]: Gravimetric vapour sorption (GVS) analysis, hygroscopicity. The format is physicochemical. The settings on record: GVS at 25° C.; for Hygroscopicity: mass change: between 40% and 80% relative humidity; for Hygroscopicity: sorption of moisture mass/mass: humidity program 40-0-95-0-95-40% RH, maximum sorption with hysteresis. The procedure:
Gravimetric Vapour Sorption (GVS) Analysis
The sample was allowed to equilibrate at 40% RH before starting a pre-defined humidity program (40-0-95-0-95-40% RH, steps of 5% ΔRH and with a maximal equilibration time of 24 hours per step were applied. About 20 to 30 mg of each sample was used. The hygroscopic classification is done according to the European Pharmacopeia Technical Guide (1999, page 86), e.g., slightly hygroscopic: increase in mass is less than 2% and equal to or greater than 0.2% mass/mass; hygroscopic: increase in mass is less than 15% and equal to or greater than 2% mass/mass. The mass change between 40% relative humidity and 80% relative humidity in the first adsorption scan is considered.

Series [2] can be described thus: Measurement of brain and systemic concentration after oral administration. The settings on record: 3 h after oral administration (100 mg/kg), n=3, male wistar rats. The format is in vivo. The procedure: Measurement of Brain and Systemic Concentration after Oral Administration:
Samples are collected in the same animal at the same time point (+/−5 min). Blood is sampled from the vena cava caudalis into containers with EDTA as anticoagulant and centrifuged to yield plasma. Brain is sampled after cardiac perfusion of 10 mL NaCl 0.9% and homogenized into one volume of cold phosphate buffer (pH 7.4). All samples are extracted with MeOH and analyzed by LC-MS/MS. Concentrations are determined with the help of calibration curves.

In the next series the test system is Wistar rats. As to the kind of experiment: Sedative effects: EEG, EMG and behavioural indices of alertness recorded by radiotelemetry. In kind it is in vivo. The settings on record: 30 mg/kg po, effects analyzed over 6 hours. The procedure:
Sedative Effects: EEG, EMG and Behavioural Indices of Alertness Recorded by Radiotelemetry In Vivo in Wistar Rats.
Electroencephalography (EEG) and Electromyography (EMG) signals were measured by telemetry using TL11M2-F20-EET miniature radiotelemetric implants (Data Science Int.) with two pairs of differential leads.
Surgical implantation was performed under general anesthesia with Ketamin/Xylazin, for cranial placement of one differential pair of EEG electrodes and one pair of EMG leads inserted in either side of the muscles of the neck. After surgery, rats recovered in a thermoregulated chamber and received analgesic treatment with subcutaneous buprenorphine twice a day for 2 d. They were then housed individually and allowed to recover for a minimum of 2 weeks. Thereafter, rats—in their home cage—were placed in a ventilated sound-attenuating box, on a 12-h light/12-h dark cycle, for acclimatization before continuous EEG/EMG recordings started. The telemetric technology that we used in this study allows accurate and stress-free acquisition of biosignals in rats placed in their familiar home cage environment, with no recording leads restricting their movements. Variables analyzed included four different stages of vigilance and sleep, spontaneous activity in the home cage and body temperature. Sleep and wake stages were evaluated using a rodent scoring software (Somnologica Science) directly processing electrical biosignals on 10 s contiguous epochs. The scoring is based on frequency estimation for EEG and amplitude discrimination for EMG and locomotor activity. Using these measurements, the software determines the probability that all components within each epoch best represent active waking (AW), quiet waking (QW), non-REM-sleep (NREM) or REM-sleep (REM). The percentage of total time spent in AW, QW, NREM- and REM-sleep was calculated per 12 h light or dark period. The latency to the onset of the first significant NREM- and REM-sleep episodes and the frequency and duration of those episodes were also calculated. […] All variables were subsequently recorded for 12 h following administration of the orexin receptor antagonist.

As for `COc1ccc(-n2nccn2)c(C(=O)N2CCC[C@@]2(C)c2nc3c(C)c(Cl)ccc3[nH]2)c1` [COMPOUND as free base in amorphous form, [(S)-2-(5-chloro-4-methyl-1H-benzoimidazol-2-yl)-2-methyl-pyrrolidin-1-yl]-(5-methoxy-2-[1,2,3]triazol-2-yl-phenyl)-methanone], the “Hygroscopicity: mass change” value in series [1] (first adsorption scan) is “about 0.7%), Hysteresis and sorption”. Further, the “Hygroscopicity: sorption of moisture mass/mass” value in series [1] is given as “of up to 2.7% moisture mass/mass”.

For `COc1ccc(-n2nccn2)c(C(=O)N2CCC[C@@]2(C)c2nc3c(C)c(Cl)ccc3[nH]2)c1` [COMPOUND in crystalline form 1, (S)-(2-(6-chloro-7-methyl-1H-benzo[d]imidazol-2-yl)-2-methylpyrrolidin-1-yl)(5-methoxy-2-(2H-1,2,3-triazol-2-yl)phenyl)methanone], in series [1] (European Pharmacopeia Technical Guide classification, 40% to 80% RH, first adsorption scan), the “Hygroscopicity (hygroscopic classification)” value is given as “Non hygroscopic (mass change smaller”. Moreover, in series [1] (first adsorption scan), the “Hygroscopicity: mass change” value is listed as “then 0.1%)”.

As for `COc1ccc(-n2nccn2)c(C(=O)N2CCC[C@@]2(C)c2nc3c(C)c(Cl)ccc3[nH]2)c1` [COMPOUND in crystalline form 2, (S)-(2-(6-chloro-7-methyl-1H-benzo[d]imidazol-2-yl)-2-methylpyrrolidin-1-yl)(5-methoxy-2-(2H-1,2,3-triazol-2-yl)phenyl)methanone], the “Hygroscopicity: mass change” value in series [1] (first adsorption scan) was “about 0.7%)”. In series [1], the “Hygroscopicity: sorption of moisture mass/mass” value was at most 1.1% moisture mass/mass.

For `COc1ccc(-n2nccn2)c(C(=O)N2CCC[C@@]2(C)c2nc3c(C)c(Cl)ccc3[nH]2)c1` [COMPOUND, (S)-(2-(6-chloro-7-methyl-1H-benzo[d]imidazol-2-yl)-2-methylpyrrolidin-1-yl)(5-methoxy-2-(2H-1,2,3-triazol-2-yl)phenyl)methanone], in series [2], the “concentration in brain [B]” value came out at 1808 ng/g and the “concentration in plasma [P]” value came to 1280 ng/mL. Further, in the series on Wistar rats, the “effect on NREM sleep compared to vehicle controls” value is reported as “+27%”, the “effect on REM sleep compared to vehicle controls” value is given as “+53%”, the “effect on active wake compared to vehicle controls” value is on record as −24% and the “effect on home cage activity compared to vehicle controls” value is −31%.
